This experiment relates to MMP2. Kind of experiment: ELISA, MMP2 concentration. Format: cell-based, human. How it is done: The concentrations of matrix metalloproteinase-2 (MMP2), matrix metalloproteinase-9 (MMP9), Bcl2, BAX, P53, Malondialdehyde (MDA), Glutathione (GSH), caspase 8, caspase 9 and IL-6 were measured quantitatively in 5c treated MCF7 and HEP2 cells using ELISA (Enzyme-Linked Immunosorbent Assay) (Table 4). Gelatinases are a collective word for MMP-2 and MMP-9, where MMP-2 is gelatinase-A and MMP-9 is gelatinase-B. Solid tumor invasion, metastasis, and angiogenesis have long been linked to gelatinases (Das et al. [2021]). […] Bcl2 is a crucial protein that targets apoptosis inhibition. It is regarded as a predictive biomarker or therapeutic target in the diagnosis of cancer due to its broad expression in a variety of cancers (Porter et al. [2009]). […] The pro-apoptotic protein BAX permeabilizes the mitochondrial outer membrane by changing from a cytosolic monomer to a hazardous oligomer triggering the apoptosis process (Fulda and Debatin [2006]). […] P53 transcription factor performs an essential tumor suppressor role by coordinating a wide range of physiological responses, including DNA repair, cell cycle arrest, cellular senescence, cell death, cell differentiation, and metabolism (Liebl and Hofmann [2021]). It was activated in MCF7 and HEP2-treated cells with values (4.28 and 3.109 ng/mL), respectively, compared to their controls (3.44 and 2.06 ng/mL). […]
In general terms: In an ELISA, binding on a coated surface is turned into a signal by an enzyme label.

Several values for one entry are separate records, joined by “and”; a condition that tells them apart may be missing. Equal entries are not always repeated.

Regarding `COc1ccc(NC(=O)COc2ccc(C=CC(=O)c3cccs3)cc2)cc1` [Compound 5c, N-(4-Methoxyphenyl)-2-(4-(3-oxo-3-(thiophen-2-yl)prop-1-en-1-yl)phenoxy)acetamide], the MMP2 concentration is, setting by setting: (5c treated HEP2 cells, untreated 461.58±45.11) 142.5 pg/mL and 142.5 ± 15.03 pg/mL; (5c treated MCF7 cells, untreated 466.90±22.55) 185.125 pg/mL and 185.125 ± 30.07 pg/mL.
